Read-outs that look alike come from different tables or passages of the source.
Key:
[1] = Aerobic dissolution activity, visual observation in open glasses of water; format: physicochemical; parameters: White grainy deposit / White rhombic froth / Reactivity/floating / Calcium settlements / Meniscus (white): scale not given here; details: for Calcium settlements / Evaporation / Meniscus (white) / Particles dissolved / Reactivity/floating / White grainy deposit / White rhombic froth: open air; for pH: open air water solutions
Protocol: Calcium cyanamide fines, homogeneous calcium cyanamide granules, heterogeneous calcium cyanamide/urea granules, calcium cyanamide granules, and urea were added to equal amounts of water in separate glasses and observed over time. Table 12 is a summary of those visual observations and highlights the vast differences between the aerobic dissolution properties and the chemical reactions over time of open air water solutions of CaNCN granules (1), CaNCN fines (2), homogeneous CaNCN/urea granules formed by melting together CaNCN fines and urea (3), heterogeneous CaNCN/urea granules with a calcium cyanamide core and a urea shell (4), and urea (5).

corn = assay: Crop yield after cornfield application; format: in vivo; details: nitrogen 160 lbs/acre for ammonia
Excerpt: Nitrate leaching after cornfield applications of 0.5% and 1% heterogeneous calcium cyanamide core/urea shell granules was also followed.

[2] = test system: Meloidogyne chitwoodi J2 larvae; assay: Meloidogyne chitwoodi J2 larvae killed after application in irrigation water; format: in vivo
Excerpt: This example was done under consultation with Washington State University. Agricultural plots were identified in Washington State.

[3] = test system: microscopic eelworms (nematodes); assay: Inventor Study, WSU: nematode reduction in vitro
Excerpt: For comparison, results of some prior art studies using dry CaNCN application, liquid molecular cyanamide applications, and the results of an experiment using dicyandiamide are also included in Table 10.

arginine production = details: cited from earlier work; for % Relative Arginine Increase: published data, CaNO3 as baseline
[4] = test system: microscopic eelworms (nematodes); details: 100 lbs/acre, hydrolyzed + urease, In vitro; cited from earlier work
weeds = details: cited from earlier work
[5] = test system: microscopic soil eelworms (nematodes); assay: Strawberry bed drip irrigation test against methyl bromide, soil eelworms at 12 inch depth; format: in vivo; details: methyl bromide in pre-wetted beds
Excerpt: As a result of the before mentioned strawberry bed weed responses, the 70/30 composition was compared directly with methyl bromide (MB) during the California Strawberry Commission's annual testing for alternatives to the ozone negative pesticide, which is scheduled to be 70% banned by 2003. Our chosen objective was to replace pre-banded “slow release” nitrogen with stabilized urea/calcium cyanamide compositions at a similar cost per acre and see if we could attain reduction of weeds and diseases similar to methyl bromide.
The urea/calcium cyanamide composition was applied to pre-wetted and preformed beds through drip irrigation tubes, typically 2 of which are laid inside of where two rows of berry plants will be planted on the outside bed edges. Applications of 100 lbs/acre were compared where the calcium cyanamide composition was applied over 1 hour and 2 hour periods to vary the depth and width of its distribution.
Soil samples, taken at a depth of 12″ in bed centers, were sent for analysis by the Commission. […] It is assumed that the pre-wetting of soil required for bed shaping, caused restricted movement of the methyl bromide gas through the soil.

Verticillium = details: cited from earlier work
Phytophthora = details: cited from earlier work
[6] = test system: microscopic eelworms (nematodes); details: not hydrolyzed, cited from earlier work
[7] = about 25° C.; cited from earlier work
Coliform = Coliform numbers in parlor wash manure with 0.2% CaNCN; format: cell-based; details: below about 0.2% by weight in manure, within 24-120 hrs
[8] = test system: microscopic eelworms (nematodes); details: 600-1200 lbs/acre, not hydrolyzed, Field Soil, dry; cited from earlier work
lettuce seed = assay: Seed emergence in band drenched lettuce and broccoli plots; format: in vivo; details: aqueous composition of calcium cyanamide alone as a drench
Protocol: Yet another test was conducted on lettuce and broccoli plots. […] The rates expressed relevant to strawberry bands were 8 lbs and 16 lbs of nitrogen per acre. […] However, where the drench was allowed to dry for several days before sprinkling, the lettuce seed emergence was reduced 100%. […]

[9] = shank injected and tarped, 350 lbs/acre
[10] = dry incorporated, 1,000 lbs./acre

Row | SMILES | Calcium settlements ([1]; 1 hour) | Evaporation ([1]; 1 hour) | Meniscus (white) ([1]; 1 hour) | Particles dissolved ([1]; 1 hour) | Reactivity/floating ([1]; 1 hour) | White grainy deposit ([1]; 1 hour) | White rhombic froth ([1]; 1 hour) | Calcium settlements ([1]; 24 hours) | Evaporation ([1]; 24 hours) | Meniscus (white) ([1]; 24 hours) | Particles dissolved ([1]; 24 hours) | Reactivity/floating ([1]; 24 hours) | White grainy deposit ([1]; 24 hours) | White rhombic froth ([1]; 24 hours) | Calcium settlements ([1]; 30 days) | Evaporation ([1]; 30 days) | Meniscus (white) ([1]; 30 days) | Particles dissolved ([1]; 30 days) | Reactivity/floating ([1]; 30 days) | White grainy deposit ([1]; 30 days) | other results
1 | [Ca+2].[N-]=C=[N-] [(2)Fines, calcium cyanamide] | 0 | 0 | 0 | 2 | 1 | 0 | 0 | 10 | 0 | 8 | 7 | 10 | 0 | 0 | 10 | 5 | 9 | 8 | 10 | 6 | White rhombic froth ([1]; 30 days): 0; pH [1]: (2)Fines(12)
2 | N [Ammonia] |  |  |  |  |  |  |  |  |  |  |  |  |  |  |  |  |  |  |  |  | Yield (corn; Field 1, 120 lbs/acre for granules): 180 bushel/acre; Yield (corn; Field 2, 120 lbs/acre for granule): 177 bushel/acre
3 | [Ca+2].[N-]=C=[N-] [(1)Granules, calcium cyanamide] | 0 | 0 | 0 | 0 | 0 | 0 | 0 | 0 | 0 | 0 | 2 | 2 | 0 | 0 | 1 | 5 | 1 | 2 | 4 | 2 | White rhombic froth ([1]; 30 days): 0; pH [1]: (1)Granules(12)
4 | [Na+].[OH-] [NaOH, sodium hydroxide] |  |  |  |  |  |  |  |  |  |  |  |  |  |  |  |  |  |  |  |  | Final pH ([2]; 35 lbs/acre at 1/2 inch depth): 10.6; J2 nema - % killed ([2]; 35 lbs/acre at 1/2 inch depth): 98.6%; Final pH ([2]; 70 lbs/acre at 1/2 inch depth): 11.4; J2 nema - % killed ([2]; 70 lbs/acre at 1/2 inch depth): 100%; Final pH ([2]; 105 lbs/acre at 1/2 inch depth): 11.7; J2 nema - % killed ([2]; 105 lbs/acre at 1/2 inch depth): 100%; Nematode Reduction ([3]; 35 lbs/acre in tap water, pH = 10, In vitro): 99%
5 | NC(N)=O [Urea, urea, reference compound] | 0 | 0 | 0 | 0 | 0 | 0 | 0 | 0 | 0 | 0 | 9 | 0 | 0 | 0 | 0 | 4 | 0 | 10 | 0 | 0 | % Relative Arginine Increase (arginine production): 69%; White rhombic froth ([1]; 30 days): 0; pH [1]: (5)Urea(8); Nematode Reduction [4]: 100%
6 | O=[N+]([O-])[O-].O=[N+]([O-])[O-].[Ca+2] [CaNO3-baseline, calcium nitrate] |  |  |  |  |  |  |  |  |  |  |  |  |  |  |  |  |  |  |  |  | % Relative Arginine Increase (arginine production): 0%
7 | CBr [methyl bromide, reference compound] |  |  |  |  |  |  |  |  |  |  |  |  |  |  |  |  |  |  |  |  | weeds reduced (weeds; shank injected followed by tarping, 350 lbs/acre): 85%; reduction of microscopic soil eelworms (nematodes) [5]: completely ineffective; reduction of Verticillium (Verticillium; [9]): 73%; reduction of Phytophthora (Phytophthora; [9]): 100%
8 | N#CN=C(N)N [Dicyan-Diamide, dicyandiamide, reference compound] |  |  |  |  |  |  |  |  |  |  |  |  |  |  |  |  |  |  |  |  | Nematode Reduction ([3]; 102 lbs/acre in distilled water, pH = 8, In vitro): 0%
9 | N#CN [H2NCN liquid, molecular cyanamide] |  |  |  |  |  |  |  |  |  |  |  |  |  |  |  |  |  |  |  |  | stimulation of arginine production relative to urea (arginine production; in plants): 20 times; Nematode Reduction ([6]; 112 lbs/acre, In vitro): 100%; acid dissociation constant [7]: about 5.42×10^−11
10 | [Ca+2].[N-]=C=[N-] [CaNCN, calcium cyanamide] |  |  |  |  |  |  |  |  |  |  |  |  |  |  |  |  |  |  |  |  | % Relative Arginine Increase (arginine production): 639%; Nematode Reduction ([6]; 1200-2400 equiv. lbs/acre, Wet pot soil): 41-66%; Nematode Reduction ([6]; 1200-2400 lbs/acre, Dry): 4-8%; Nematode Reduction ([6]; 1200-2400 lbs/acre, Wet): 42-54%; weeds reduced (weeds; dry surface incorporation of 1000 lbs/acre followed by 0.5 acre inch sprinkler water): 95%; reductions in coliform bacteria (Coliform): 99.999%; Nematode Reduction ([3]; 9 lbs/acre in distilled water, hydrolyzed, pH = 12.6, In vitro): 100%; Nematode Reduction ([3]; 29 lbs/acre in tap water, hydrolyzed, pH = 10, In vitro): 0%; Nematode Reduction [8]: 0%; lettuce seed emergence reductions (lettuce seed; 5 lbs CaNCN N/acre): 85%; lettuce seed emergence reductions (lettuce seed; 10 lbs CaNCN N/acre): 100%; reduction of Verticillium (Verticillium; [10]): 8%; reduction of Phytophthora (Phytophthora; [10]): 0%

— patent US7785388B2, “Method for producing stabilized nitrogen compositions” (priority 1999, dated 2010)
